Results taken from patent US10624887B2, “Compositions of (-)-17-(cyclobutylmethyl)morphinan-3,14,-diol” (priority 2010, dated 2020).

System: vincristine induced painful neuropathy
Experiment: Vincristine induced painful neuropathy, cold allodynia (acetone drop test)
Format: in vivo, Wistar rats
Conditions: vincristine neuropathic rats
Text: The aim of this study was to evaluate the effect of oral administration of butorphanol in rats with vincristine induced painful neuropathy. The primary measurements were made mechanical and thermal allodynia designed to detect effects of the treatment(s) on neuropathic pain.
Wistar rats weighing 250±20 g were maintained on standard laboratory diet and having free access to tap water ad lib were employed in the present study. They were housed in the animal house and were exposed to 12 hr cycle of light and dark. The experiments were conducted in a semi-sound proof laboratory. Care of the animals was in accordance with guidelines for experimentation on animals.
The vincristine model was adapted from Authier et al (1999). Rats were injected on five alternate days (day 4, 6, 8, 10 & 12) with vincristine (200 μg/kg i.p.) using an injection volume of 2 ml/kg. Thus, the cumulative dose of vincristine was computed to be 1 mg/kg. Tests took place three days after the last injection and continued over the next three weeks. […]
For the assessment of cold allodynia, which was stable for 3 weeks, the rats were placed on a wire mesh covered with a plastic dome and were allowed to habituate until the exploratory behavior diminished. Cold allodynia was measured as the number of foot withdrawal responses after application of stimuli to the plantar surface of the paw. […] Acetone was applied two times (once every 5 min) on the left paw, and the number of reactions (shaking, tapping, or licking) was counted during 30 sec. […] The score was expressed as accumulated numbers of reactions over the trials and determined before and 30 and 60 min after administration of the test drugs. Each individual test was expressed as a percentage of maximum possible effect (% MPE): […]
MPE (%) at 30 min time point was employed as a quantitative measure of the analgesic effect of the test drugs.
The anti-nociceptive effect was plotted assessed having time (relative to dosing time point) on the x-axis and percent maximum possible effect (% MPE) on the y-axis. The results were expressed as mean±standard error of means (S.E.M.). […]

Oc1ccc2c(c1)[C@@]13CCCC[C@@]1(O)[C@@H](C2)N(CC1CCC1)CC3 [butorphanol, (−)17-(Cyclobutylmethyl)morphinan-3,14-diol]
cold allodynia score (oral 1, 3, 10, 30 mg/kg, FIG. 16): dose dependent decrease
cold allodynia withdrawal threshold in comparison to the control readings (oral): significant increase
time of peak effect post-administration (cold allodynia) (oral): 30 min
